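GI50 is the concentration that inhibits growth by half. TGI denotes the concentration required for complete inhibition of growth.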
Assays:
Assay in all cases: NCI-60 cell line screen, 384-well format
[1] = tested on: SW-620 colon
[2] = tested on: MDA-MB-468 breast
[3] = tested on: SK-MEL-5 melanoma
[4] = tested on: NCI-H322M lung
[5] = tested on: A498 renal
[6] = tested on: MDA-MB-435 melanoma
[7] = tested on: ACHN renal
[8] = tested on: MCF7 breast
[9] = tested on: SNB-19 CNS
[10] = tested on: SF-268 CNS
[11] = tested on: HOP-62 NSCLC
[12] = tested on: TK-10 renal
[13] = tested on: SF-539 CNS
[14] = tested on: U251 glioblastoma
[15] = tested on: CCRF-CEM leukemia
[16] = tested on: HCC-2998 colon
[17] = tested on: IGROV1 ovarian
[18] = tested on: UO-31 renal
[19] = tested on: MOLT-4 leukemia
[20] = tested on: HCT-15 colon
[21] = tested on: BT-549 breast
[22] = tested on: SN12C renal
[23] = tested on: 786-0 renal
[24] = tested on: SK-MEL-2 melanoma
[25] = tested on: PC-3 prostate
[26] = tested on: SK-OV-3 ovarian
[27] = tested on: NCI-H460 NSCLC
[28] = tested on: SF-295 CNS
[29] = tested on: HS 578T breast
[30] = tested on: SNB-75 CNS

Compound: O=C(Nc1ccc(O)c(NS(=O)(=O)c2ccc(F)cc2)c1)c1ccc(-c2ccccc2)cc1
- TGI [1]: 22 µM
- GI50 [2]: 2.08 µM
- TGI [2]: 7.66 µM
- GI50 [3]: 4.13 µM
- TGI [3]: 15.3 µM
- GI50 [4]: 4.58 µM
- TGI [4]: 16.6 µM
- GI50 [5]: 3.57 µM
- TGI [5]: 15.1 µM
- GI50 [6]: 7.4 µM
- TGI [6]: 20.2 µM
- GI50 [7]: 6.99 µM
- TGI [7]: 19.7 µM
- GI50 [8]: 3.87 µM
- TGI [8]: 15.4 µM
- GI50 [9]: 7.07 µM
- TGI [9]: 19.3 µM
- GI50 [10]: 4.51 µM
- TGI [10]: 15.2 µM
- GI50 [11]: 9.69 µM
- TGI [11]: 21.4 µM
- GI50 [12]: 3.61 µM
- TGI [12]: 11.8 µM
- GI50 [13]: 5.63 µM
- TGI [13]: 18.4 µM
- GI50 [14]: 5.41 µM
- TGI [14]: 17.1 µM
- GI50 [15]: 2.24 µM
- TGI [15]: 4.11 µM
- GI50 [16]: 4.56 µM
- TGI [16]: 10.3 µM
- GI50 [17]: 3.62 µM
- TGI [17]: 12.2 µM
- GI50 [18]: 5.25 µM
- TGI [18]: 16.9 µM
- GI50 [19]: 1.69 µM
- TGI [19]: 3.12 µM
- GI50 [20]: 3.84 µM
- TGI [20]: 11.8 µM
- GI50 [21]: 4.01 µM
- TGI [21]: 13.1 µM
- GI50 [22]: 7.38 µM
- TGI [22]: 19.7 µM
- GI50 [23]: 3.74 µM
- TGI [23]: 12.6 µM
- GI50 [24]: 10.4 µM
- TGI [24]: 22.2 µM
- GI50 [25]: 3.94 µM
- TGI [25]: 14.4 µM
- GI50 [26]: 6.15 µM
- TGI [26]: 18.4 µM
- GI50 [27]: 2.9 µM
- TGI [27]: 10.3 µM
- GI50 [28]: 10.5 µM
- TGI [28]: 22.4 µM
- GI50 [29]: 2.93 µM
- TGI [29]: 15.5 µM
- GI50 [30]: 9.53 µM
- TGI [30]: 21.2 µM

Source: PubChem BioAssay (NCI)
